Measurements as given in patent US20240246948A1, “BENZAMIDE DERIVATIVE, METHOD FOR PREPARING SAME, AND PHARMACEUTICAL COMPOSITION FOR PREVENTION OR TREATMENT OF CANCER CONTAINING SAME AS ACTIVE INGREDIENT” (HK INNO.N CORPORATION, priority 2021, published 2024).

Tests used:
[1] = target: Ba/F3 EGFR L858R/T790M (LT) (Homo sapiens, UniProt P00533, T790M/L858R, cells depend on it); assay: Cell growth inhibitory ability in Ba/F3 cells overexpressing EGFR L858R/T790M (MTS, CellTiter 96 AQueous); format: cell-based; details: 72 hours, MTS absorbance at 490 nm, read-out: Ba/F3 EGFR double mutant L858R/T790M, IC50
Protocol: (§1) In order to confirm that the compound represented by formula 1 provided in one aspect of the present invention acts as an allosteric inhibitor against WT and mutant of EGFR, the cell growth inhibitory effect was evaluated in BaF3 cells overexpressing WT and mutant of EGFR.
(§2) More specifically, the cell growth inhibitory ability of the compound of the present invention to the Ba/F3 cell line overexpressing WT and mutant of EGFR was evaluated using CellTiter 96 AQueous Non-Radioactive Cell Proliferation Assay system of Promega, as follows. AQueous Non-Radioactive Cell Proliferation Assay is a method of confirming cell growth inhibitory ability by measuring the degree of color development by reducing MTS (3-(4,5-Dimethylthiazol-2-yl)-5-(3-carboxymethoxyphenyl)-2-(4-sulfophenyl)-2H-tetrazolium) to Formazan by a reductase secreted by mitochondria present in living cells in a cell culture state. The Ba/F3 EGFR WT and Ba/F3 EGFR del19/T790M/C797S (DTC), Ba/F3 EGFR L858R (L), Ba/F3 EGFR L858R/T790M (LT), and Ba/F3 EGFR L858R/T790M/C797S (LTC) mutation cell lines used in the present invention were purchased from the laboratory of Professor Byung-cheol Cho, Yonsei University. All cell lines were cultured in RPMI supplemented with 10% FBS, 1% penicillin-streptomycin and 1 μg/ml of puromycine in a 5% CO2 incubator at 37° C.
(§3) The cell survival inhibitory effect of the compound according to each EGFR mutation was analyzed by the following analysis method.
(§4) BaF3 cells were distributed in a 96-well cell culture plate at the density of 2000˜10000 cells/100 μL/well, and cultured for 24 hours. Thereafter, the concentration of the compound represented by formula 1 provided in one aspect of the present invention was prepared to double the final concentrations of 0.1 nM, 1 nM, 10 nM, 100 nM, 1000 nM and 10000 nM, and the compound was treated to the plate (100 μL/well). The plate was reacted in an incubator at 37° C. for 72 hours. Then, MTS was treated to the plate (20 μL/well) and the plate was incubated at 37° C. for 2 to 4 hours. Finally, after measuring the absorbance at 490 nm using a microplate reader, the relative value compared to 0 nM (% Control) was obtained to confirm the cell growth inhibitory ability of the compound. The measured values were analyzed using Prism program (version 8.0, Graphpad Software, Inc.), and the IC50 value (Inhibition concentration 50), an indicator of the cell growth inhibitory ability of the compound, was calculated.

[2] = target: Ba/F3 EGFR L858R/T790M/C797S (LTC) (Homo sapiens, UniProt P00533, T790M/C797S/L858R, cells depend on it); assay: Cell growth inhibitory ability in Ba/F3 cells overexpressing EGFR L858R/T790M/C797S (MTS, CellTiter 96 AQueous); format: cell-based; details: 72 hours, MTS absorbance at 490 nm, read-out: Ba/F3 EGFR triple mutant L858R/T790M/C797S, IC50
Protocol: as §1, §2, §3, §4

Sequence of Ba/F3 EGFR L858R/T790M/C797S (LTC) (P00533 whole entry T790M/C797S/L858R): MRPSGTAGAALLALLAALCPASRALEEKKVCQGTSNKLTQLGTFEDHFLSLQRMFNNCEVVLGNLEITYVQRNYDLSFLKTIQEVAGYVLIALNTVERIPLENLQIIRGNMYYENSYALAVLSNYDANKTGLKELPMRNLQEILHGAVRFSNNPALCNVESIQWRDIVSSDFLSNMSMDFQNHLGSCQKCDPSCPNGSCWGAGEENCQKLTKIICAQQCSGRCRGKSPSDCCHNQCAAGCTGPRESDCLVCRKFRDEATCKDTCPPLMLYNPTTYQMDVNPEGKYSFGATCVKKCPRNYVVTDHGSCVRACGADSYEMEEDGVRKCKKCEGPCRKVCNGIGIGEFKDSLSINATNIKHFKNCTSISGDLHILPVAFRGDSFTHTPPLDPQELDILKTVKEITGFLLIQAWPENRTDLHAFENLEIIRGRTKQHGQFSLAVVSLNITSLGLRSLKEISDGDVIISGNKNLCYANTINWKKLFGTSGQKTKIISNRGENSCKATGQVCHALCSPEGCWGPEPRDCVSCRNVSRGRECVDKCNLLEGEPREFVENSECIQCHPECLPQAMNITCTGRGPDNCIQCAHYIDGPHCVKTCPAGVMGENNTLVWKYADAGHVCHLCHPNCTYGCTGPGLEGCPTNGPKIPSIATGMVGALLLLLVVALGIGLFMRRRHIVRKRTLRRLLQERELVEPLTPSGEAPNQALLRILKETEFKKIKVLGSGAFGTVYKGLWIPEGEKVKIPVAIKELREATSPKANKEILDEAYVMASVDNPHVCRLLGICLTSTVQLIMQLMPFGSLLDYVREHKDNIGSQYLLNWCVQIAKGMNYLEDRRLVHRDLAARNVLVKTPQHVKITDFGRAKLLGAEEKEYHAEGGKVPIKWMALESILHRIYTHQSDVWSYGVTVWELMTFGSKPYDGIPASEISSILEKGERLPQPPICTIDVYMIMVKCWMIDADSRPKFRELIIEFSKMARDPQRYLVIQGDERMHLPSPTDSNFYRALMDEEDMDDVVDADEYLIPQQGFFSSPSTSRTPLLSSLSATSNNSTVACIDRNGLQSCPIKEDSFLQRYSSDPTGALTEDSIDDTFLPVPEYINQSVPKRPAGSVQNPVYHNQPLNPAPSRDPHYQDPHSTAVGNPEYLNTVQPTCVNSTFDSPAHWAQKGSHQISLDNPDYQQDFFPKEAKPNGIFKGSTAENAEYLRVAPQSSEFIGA
Sequence of Ba/F3 EGFR L858R/T790M (LT) (P00533 whole entry T790M/L858R): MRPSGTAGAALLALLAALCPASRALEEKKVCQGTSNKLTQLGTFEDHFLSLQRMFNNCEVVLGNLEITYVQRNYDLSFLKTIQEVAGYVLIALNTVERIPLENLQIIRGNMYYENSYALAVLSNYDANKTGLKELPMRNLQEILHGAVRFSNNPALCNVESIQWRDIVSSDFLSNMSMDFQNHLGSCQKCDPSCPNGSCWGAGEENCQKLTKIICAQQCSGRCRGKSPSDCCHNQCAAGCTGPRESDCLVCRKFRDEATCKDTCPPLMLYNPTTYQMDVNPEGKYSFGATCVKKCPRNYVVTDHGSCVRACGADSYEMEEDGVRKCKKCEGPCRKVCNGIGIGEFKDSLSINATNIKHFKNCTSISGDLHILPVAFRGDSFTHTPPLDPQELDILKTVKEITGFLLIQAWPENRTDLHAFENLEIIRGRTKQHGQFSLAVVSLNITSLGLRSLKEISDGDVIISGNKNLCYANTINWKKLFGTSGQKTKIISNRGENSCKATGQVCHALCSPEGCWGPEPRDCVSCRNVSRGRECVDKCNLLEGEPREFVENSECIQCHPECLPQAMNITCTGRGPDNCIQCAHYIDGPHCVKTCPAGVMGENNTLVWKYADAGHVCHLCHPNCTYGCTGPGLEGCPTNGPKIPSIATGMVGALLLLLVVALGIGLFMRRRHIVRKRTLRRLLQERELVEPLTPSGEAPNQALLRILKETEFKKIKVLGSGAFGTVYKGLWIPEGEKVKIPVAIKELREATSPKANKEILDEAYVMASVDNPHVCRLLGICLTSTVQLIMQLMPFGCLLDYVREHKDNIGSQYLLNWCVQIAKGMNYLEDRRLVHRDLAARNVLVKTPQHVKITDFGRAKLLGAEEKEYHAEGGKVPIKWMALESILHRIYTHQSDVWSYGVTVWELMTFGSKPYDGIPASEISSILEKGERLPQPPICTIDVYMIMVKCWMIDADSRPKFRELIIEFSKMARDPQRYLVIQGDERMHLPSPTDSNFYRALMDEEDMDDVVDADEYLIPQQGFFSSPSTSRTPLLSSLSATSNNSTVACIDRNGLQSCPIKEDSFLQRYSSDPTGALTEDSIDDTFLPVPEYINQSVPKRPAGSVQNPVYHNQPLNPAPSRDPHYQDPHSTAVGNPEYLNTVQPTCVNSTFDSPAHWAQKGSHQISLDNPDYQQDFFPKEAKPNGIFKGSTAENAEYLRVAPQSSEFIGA

SMILES	GI50 [1] [nM]	GI50 [2] [nM]
NC1CCN(c2ccc(-c3cc(OC(F)(F)F)cc(C(=O)N[C@@H](c4cc5ccccc5[nH]4)c4cc(F)ccc4O)c3)cc2)CC1 [Example 11, (R)-4′-(4-aminopiperidine-1-yl)-N-((5-fluoro-2-hydroxyphenyl)(1H-indole-2-yl)methyl)-5-(trifluoromethoxy)-[1,1′-biphenyl]-3-carboxamide]	> 200	> 200
COc1ccc(F)cc1[C@@H](NC(=O)c1cc(OC(F)(F)F)cc(-c2ccc(N3CCC(N)CC3)cc2)c1)c1cc2ccccc2[nH]1 [Example 12, (R)-4′-(4-aminopiperidine-1-yl)-N-((5-fluoro-2-methoxyphenyl)(1H-indole-2-yl)methyl)-5-(trifluoromethoxy)-[1,1′-biphenyl]-3-carboxamide]	30 to 200	> 200
NC1CCN(c2ccc(-c3cc(C(=O)N[C@@H](c4cc5ccccc5[nH]4)c4cc(F)ccc4O)cc(-n4ccnc4)c3)cc2)CC1 [Example 13, (R)-4′-(4-aminopiperidine-1-yl)-N-((5-fluoro-2-hydroxyphenyl)(1H-indole-2-yl)methyl)-5-(1H-imidazole-1-yl)-[1,1′-biphenyl]-3-carboxamide]	> 200	> 200
NC1CCN(c2ccc(-c3cc(C(=O)N[C@@H](c4cc5ccccc5[nH]4)c4cc(F)ccc4O)ccn3)cc2)CC1 [Example 14, (R)-2-(4-(4-aminopiperidine-1-yl)phenyl)-N-((5-fluoro-2-hydroxyphenyl)(1H-indole-2-yl)methyl)isonicotinamide]	30 to 200	> 200
COc1ccc(F)cc1[C@@H](NC(=O)c1ccnc(-c2ccc(N3CCC(N)CC3)cc2)c1)c1cc2ccccc2[nH]1 [Example 15, (R)-2-(4-(4-aminopiperidine-1-yl)phenyl)-N-((5-fluoro-2-methoxyphenyl)(1H-indole-2-yl)methyl)isonicotinamide]	> 200	> 200
Cc1cc(C(=O)N[C@@H](c2cc3ccccc3[nH]2)c2cc(F)ccc2O)cc(-c2cnc(N3CCC(N)CC3)nc2)c1 [Example 16, (R)-3-(2-(4-aminopiperidine-1-yl)pyrimidine-5-yl)-N-((5-fluoro-2-hydroxyphenyl)(1H-indole-2-yl)methyl)-5-methylbenzamide]	< 30	30 to 200
Cc1cc(C(=O)N[C@@H](c2cc3ccccc3[nH]2)c2cc(F)ccc2O)cc(-c2ccc(N3CCC(N)CC3)cn2)c1 [Example 17, (R)-3-(5-(4-aminopiperidine-1-yl)pyridine-2-yl)-N-((5-fluoro-2-hydroxyphenyl)(1H-indole-2-yl)methyl)-5-methylbenzamide]	< 30	< 30
Cc1cc(C(=O)N[C@@H](c2cc3ccccc3[nH]2)c2cc(F)ccc2O)cc(-c2cnc(N3CCC(N)CC3)cn2)c1 [Example 18, (R)-3-(5-(4-aminopiperidine-1-yl)pyrazine-2-yl)-N-((5-fluoro-2-hydroxyphenyl)(1H-indole-2-yl)methyl)-5-methylbenzamide]	< 30	< 30
Cc1cc(C(=O)N[C@@H](c2cc3ccccc3[nH]2)c2cc(F)ccc2O)cc(-c2ccc(N3CCC(N)CC3)nc2)c1 [Example 19, (R)-3-(6-(4-aminopiperidine-1-yl)pyridine-3-yl)-N-((5-fluoro-2-hydroxyphenyl)(1H-indole-2-yl)methyl)-5-methylbenzamide]	< 30	< 30
Cc1cc(C(=O)N[C@@H](c2cc3ccccc3[nH]2)c2cc(F)ccc2O)cc(-c2ccc(N3CCC(N)CC3)nn2)c1 [Example 20, (R)-3-(6-(4-aminopiperidine-1-yl)pyridazine-3-yl)-N-((5-fluoro-2-hydroxyphenyl)(1H-indole-2-yl)methyl)-5-methylbenzamide]	30 to 200	> 200
Cc1cc(C(=O)N[C@@H](c2cc3ccccc3[nH]2)c2cc(F)ccc2O)cc(-c2ncc(N3CCC(N)CC3)cn2)c1 [Example 21, (R)-3-(5-(4-aminopiperidine-1-yl)pyrimidine-2-yl)-N-((5-fluoro-2-hydroxyphenyl)(1H-indole-2-yl)methyl)-5-methylbenzamide]	< 30	< 30
Cc1cc(C(=O)N[C@@H](c2cc3ccccc3[nH]2)c2cc(F)ccc2O)cc(-c2ccc(N3CCC(N)CC3)c(F)c2)c1 [Example 22, (R)-4′-(4-aminopiperidine-1-yl)-3′-fluoro-N-((5-fluoro-2-hydroxyphenyl)(1H-indole-2-yl)methyl)-5-methyl-[1,1′-biphenyl]-3-carboxamide]	< 30	< 30
Cc1cc(C(=O)N[C@@H](c2cc3ccccc3[nH]2)c2cc(F)ccc2O)cc(-c2ccc(N3CCC(N)CC3)cc2C)c1 [Example 23, (R)-4′-(4-aminopiperidine-1-yl)-N-((5-fluoro-2-hydroxyphenyl)(1H-indole-2-yl)methyl)-2′,5-dimethyl-[1,1′-biphenyl]-3-carboxamide]	< 30	< 30
Cc1cc(C(=O)N[C@@H](c2cc3ccccc3[nH]2)c2cc(F)ccc2O)cc(-c2ccc(N3CCC(N)CC3)cc2F)c1 [Example 24, (R)-4′-(4-aminopiperidine-1-yl)-2′-fluoro-N-((5-fluoro-2-hydroxyphenyl)(1H-indole-2-yl)methyl)-5-methyl-[1,1′-biphenyl]-3-carboxamide]	< 30	< 30
Cc1cc(C(=O)N[C@@H](c2cc3ccccc3[nH]2)c2cc(F)ccc2O)cc(-c2ccc(N3CCC(N)CC3)c(C)c2)c1 [Example 25, (R)-4′-(4-aminopiperidine-1-yl)-N-((5-fluoro-2-hydroxyphenyl)(1H-indole-2-yl)methyl)-3′,5-dimethyl-[1,1′-biphenyl]-3-carboxamide]	< 30	< 30
Cc1cc(C(=O)N[C@@H](c2cc3ccc(F)cc3[nH]2)c2cc(F)ccc2O)cc(-c2ccc(N3CCC(N)CC3)cc2)c1 [Example 26, (R)-4′-(4-aminopiperidine-1-yl)-N-((6-fluoro-1H-indole-2-yl)(5-fluoro-2-hydroxyphenyl)methyl)-5-methyl-[1,1′-biphenyl]-3-carboxamide]	< 30	30 to 200
Cc1cc(C(=O)N[C@@H](c2cc3ccc(Cl)cc3[nH]2)c2cc(F)ccc2O)cc(-c2ccc(N3CCC(N)CC3)cc2)c1 [Example 27, (R)-4′-(4-aminopiperidine-1-yl)-N-((6-chloro-1H-indole-2-yl)(5-fluoro-2-hydroxyphenyl)methyl)-5-methyl-[1,1′-biphenyl]-3-carboxamide]	30 to 200	> 200
Cc1c(C(=O)N[C@@H](c2cc3ccccc3[nH]2)c2cc(F)ccc2O)cccc1-c1ccc(N2CCC(N)CC2)cc1 [Example 30, (R)-4′-(4-aminopiperidine-1-yl)-N-((5-fluoro-2-hydroxyphenyl) (1H-indole-2-yl)methyl)-2-methyl-[1,1′-biphenyl]-3-carboxamide]	> 200	> 200
Cc1cc(C(=O)N[C@H](c2cc3ccccc3[nH]2)c2cc(F)ccc2O)cc(-c2ccc(N3CCC(N)CC3)cc2)c1 [Example 31, (S)-4′-(4-aminopiperidine-1-yl)-N-((5-fluoro-2-hydroxyphenyl)(1H-indole-2-yl)methyl)-5-methyl-[1, l′-biphenyl]-3-carboxamide]	> 200	> 200
Cc1cc(C(=O)NC(c2cc3ccccc3[nH]2)c2cc(F)ccc2O)cc(-c2ccc(N3CCC(N)CC3)cc2)c1 (stereo not drawn) [Example 32, 4′-(4-aminopiperidine-1-yl)-N-((5-fluoro-2-hydroxyphenyl)(1H-indole-2-yl)methyl)-5-methyl-[1,1′-biphenyl]-3-carboxamide]	< 30	< 30
Cc1cc(C(=O)N[C@@H](c2cc3ccccc3[nH]2)c2cc(F)ccc2O)cc(-c2cc(C)c(N3CCC(N)CC3)cn2)c1 [Example 33, (R)-3-(5-(4-aminopiperidine-1-yl)-4-methylpyridine-2-yl)-N-((5-fluoro-2-hydroxyphenyl)(1H-indole-2-yl)methyl)-5-methylbenzamide]	< 30	< 30
